In EP4737445A1, “NOVEL SATURATED HETEROCYCLE-SUBSTITUTED HETEROARYL-CARBONOHYDRAZONOYL DICYANIDE COMPOUND AND USE THEREOF” (Korea Institute of Science and Technology, priority 2023, dated 2025):
pIC50: −log10 of the molar value.

Experiments:
[1] = system: TDP-43 BiFC cells; test: Cell viability (stained nuclei count) in TDP-43-BiFC cells; format: cell-based; conditions: Forskolin-only group = 100%
Protocol: (§1) To screen for new TDP-43 aggregation inhibitors, a TDP-43-BiFC cell model that facilitates observation of TDP-43 aggregate formation in living cells was used. Specifically, TDP-43-BiFC cells were dispensed into a 384-well plate, and the next day, the compounds prepared according to Examples 1 to 46 were treated at concentrations of 3 and 10 µM, respectively, together with Forskolin (treatment concentration 30 µM), which is a compound that induces TDP-43 aggregation by activating the phosphorylation enzyme PKA. After 48 hours, nuclei within cells were stained using Hoechst (treatment concentration 1 µg/mL), and BiFC fluorescence intensity was automatically quantified using Operetta (PerkinElmer) to count the stained nuclei in each well from the entire plate. The group treated only with Forskolin, which induces TDP-43 aggregation, was set as the reference point with 100% TDP-43 aggregation state, and the effect was confirmed by the formula "(BiFC fluorescence intensity by the compounds synthesized according to the Examples of the disclosure - fluorescence intensity of the untreated control group)/(fluorescence intensity of the control group treated only with Forskolin that induces TDP-43 aggregation - fluorescence intensity of the untreated control group) × 100". In addition, the degree of cytotoxicity induced by the newly synthesized compounds was also calculated using the formula "(number of stained nuclei in the compound-treated group/number of stained nuclei in the Forskolin-treated group) × 100", with the group treated only with Forskolin as the reference point at 100% viability. From the treatment results, substances that inhibit intracellular TDP-43 aggregation were identified through screening from a series of candidates based on the criteria of 80% or more TDP-43 aggregation inhibition and 60% cell viability at a compound treatment concentration of 3 µM.
(§2) Furthermore, to confirm the TDP-43 aggregation inhibitory effect according to the concentration of the compounds screened in Experimental Example 3, the screened compounds were treated to […] at concentrations of 0.003, 0.01, 0.03, 0.1, 0.3, 1, 3, and 10 µM, respectively, together with Forskolin (treatment concentration 30 µM), which is a TDP-43 aggregation-inducing substance. After 48 hours, cell images were examined to analyze the TDP-43 aggregation reaction and degree of cytotoxicity. The IC50 and toxicity of the compounds were analyzed by nonlinear regression analysis using Prism software (GraphPad). The calculated results for representative compounds are shown in Table 4 below: TDP-43 protein aggregation inhibitory effect and cell viability of novel compounds.

[2] = target: T1, CYP2C9 (Homo sapiens, UniProt P11712); test: CYP isoenzyme activity inhibition in human liver microsomes, CYP2C9; format: in vitro ADME; conditions: 10 µM compound; human liver microsomes 0.25 mg/mL; relative to control without compound
T1 construct: human liver microsomes (0.25 mg/mL); from tissue; host or cells: human liver microsomes
Protocol: (§3) The CYP isoenzyme activity inhibitory effect by the compounds prepared according to Examples 1 to 46 was confirmed. Specifically, human liver microsomes (0.25 mg/mL), 0.1 M phosphate buffer solution (pH 7.4), a substrate drug cocktail of five drug metabolizing enzymes (Phenacetin 50 µM, Diclofenac 10 µM, S-mephenytoin 100 µM, Dextromethorphan 5 µM, and Midazolam 2.5 µM), and the compounds were added at concentrations of 0 or 10 µM, respectively, and pre-incubated at 37°C for 5 minutes, and then NADPH generation system solution was added and incubated at 37°C for an additional 15 minutes. Thereafter, an acetonitrile solution containing an internal standard (Terfenadine) was added to terminate the reaction, and after centrifugation for 5 minutes (14,000 rpm, 4°C), the supernatant was injected into an LC-MS/MS system to simultaneously analyze the metabolites of the substrate drugs, thereby evaluating the drug metabolizing enzyme inhibitory activity.
(§4) The metabolites of each CYP isoenzyme marker drug generated through the reaction were analyzed using a Shimadzu Nexera XR system and TSQ vantage (Thermo). A Kinetex C18 (2.1 × 100 mm, 2.6 µm, particle size; Phenomenex, USA) was used as the HPLC column, and (A) distilled water containing 0.1% formic acid and (B) acetonitrile containing 0.1% formic acid were used as mobile phases, and a gradient program as shown in Table 6 below was applied.
(§5) The generated metabolites were quantified using MRM (Multiple Reaction Monitoring) quantitative mode, and Xcalibur (version 1.6.1) was used for data analysis. To show the CYP isoenzyme activity inhibitory effect of the novel compounds prepared according to the Examples of the disclosure, the % activity of CYP isoenzymes relative to the control group without compound addition is shown in Table 6 below. Additionally, to confirm the difference in effect according to substituents, Comparative Compounds 1 and 5, which are two compounds that share a similar parent nucleus structure with Compounds 1 to 46 of the disclosure while Cy is substituted with aromatic heteroaryl instead of saturated heterocyclyl, were selected as comparative compounds and their activities are shown together.

[3] = Liver microsomal stability, human; format: in vitro ADME; conditions: 1 µM compound; 0.5 mg/mL microsomes; NADPH; 30 minutes at 37°C
Protocol: Liver microsomal stability by the compounds prepared according to Examples 1 to 46 was confirmed. Specifically, four types of liver microsomes (human, dog, rat, and mouse each at 0.5 mg/mL), 0.1 M phosphate buffer solution (pH 7.4), and the compounds at 1 µM concentration were added and pre-incubated at 37°C for 5 minutes, and then NADPH generation system solution was added and incubated at 37°C for an additional 30 minutes. Thereafter, an acetonitrile solution containing an internal standard (chloropropamide) was added to terminate the reaction, and after centrifugation for 5 minutes (14,000 rpm, 4°C), the supernatant was injected into an LC-MS/MS system to analyze the substrate drug, thereby evaluating the metabolic stability of 8 compounds.
The amount of remaining substrate through the reaction was analyzed using a Shimadzu Nexera XR system and TSQ vantage (Thermo). A Kinetex XB-C18 (2.1 × 100 mm, 2.6 µm, particle size; Phenomenex, USA) was used as the HPLC column, and (A) distilled water containing 0.1% formic acid and (B) acetonitrile containing 0.1% formic acid were used as mobile phases. Analyst software (version 1.6.3) and Xcalibur (version 1.6.1) were used for data analysis. The calculated results are shown in Table 5 below: Liver microsomal stability data of novel compounds from […] (human, rat, and mouse).

[4] = target: T2, TDP-43 protein (Homo sapiens, UniProt Q13148); test: TDP-43 aggregation inhibition in TDP-43-BiFC cell model (Forskolin-induced); format: cell-based; conditions: for inhibition at 3 µM: read-out: TDP-43 protein aggregation inhibitory effect: Aggregation inhibitory effect (%) (@3 uM)
T2 construct: BiFC fluorescent-protein fragments (two complementary halves); expressed in transfected cells
Protocol: as §1, §2

[5] = target: T3, CYP2C19 (Homo sapiens, UniProt P33261); test: CYP isoenzyme activity inhibition in human liver microsomes, CYP2C19; format: in vitro ADME; conditions: 10 µM compound; human liver microsomes 0.25 mg/mL; relative to control without compound
T3 construct: human liver microsomes (0.25 mg/mL); from tissue; host or cells: human liver microsomes
Protocol: as §3, §4, §5

[6] = target: T4, CYP2D6 (Homo sapiens, UniProt P10635); test: CYP isoenzyme activity inhibition in human liver microsomes, CYP2D6; format: in vitro ADME; conditions: 10 µM compound; human liver microsomes 0.25 mg/mL; relative to control without compound
T4 construct: human liver microsomes (0.25 mg/mL); from tissue; host or cells: human liver microsomes
Protocol: as §3, §4, §5

T3 sequence (P33261 whole entry): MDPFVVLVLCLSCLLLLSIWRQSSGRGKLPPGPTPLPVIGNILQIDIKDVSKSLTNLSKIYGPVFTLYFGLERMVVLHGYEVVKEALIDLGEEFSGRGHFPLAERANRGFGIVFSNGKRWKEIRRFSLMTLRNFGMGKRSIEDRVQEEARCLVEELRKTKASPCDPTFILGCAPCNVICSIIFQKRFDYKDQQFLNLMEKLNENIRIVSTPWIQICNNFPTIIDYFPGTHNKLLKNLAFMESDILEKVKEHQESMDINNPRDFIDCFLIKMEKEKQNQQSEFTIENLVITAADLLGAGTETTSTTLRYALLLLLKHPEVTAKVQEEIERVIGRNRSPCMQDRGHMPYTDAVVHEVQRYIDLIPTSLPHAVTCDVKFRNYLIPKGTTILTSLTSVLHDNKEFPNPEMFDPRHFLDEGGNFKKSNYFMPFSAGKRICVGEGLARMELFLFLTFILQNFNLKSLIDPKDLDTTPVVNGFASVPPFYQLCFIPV
T4 sequence (P10635 whole entry): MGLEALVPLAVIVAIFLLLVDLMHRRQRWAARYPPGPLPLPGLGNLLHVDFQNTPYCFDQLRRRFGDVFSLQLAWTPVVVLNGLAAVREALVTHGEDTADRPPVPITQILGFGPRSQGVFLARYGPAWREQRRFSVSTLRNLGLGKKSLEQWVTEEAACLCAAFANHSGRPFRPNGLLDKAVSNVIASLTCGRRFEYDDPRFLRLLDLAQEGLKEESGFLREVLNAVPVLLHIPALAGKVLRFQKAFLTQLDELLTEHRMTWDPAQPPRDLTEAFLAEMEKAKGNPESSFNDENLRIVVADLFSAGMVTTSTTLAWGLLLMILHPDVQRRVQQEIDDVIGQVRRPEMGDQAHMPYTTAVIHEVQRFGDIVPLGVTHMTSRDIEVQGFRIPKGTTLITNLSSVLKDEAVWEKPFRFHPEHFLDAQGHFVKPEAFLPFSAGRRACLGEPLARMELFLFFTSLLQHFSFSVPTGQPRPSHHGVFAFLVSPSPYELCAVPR
T1 sequence (P11712 whole entry): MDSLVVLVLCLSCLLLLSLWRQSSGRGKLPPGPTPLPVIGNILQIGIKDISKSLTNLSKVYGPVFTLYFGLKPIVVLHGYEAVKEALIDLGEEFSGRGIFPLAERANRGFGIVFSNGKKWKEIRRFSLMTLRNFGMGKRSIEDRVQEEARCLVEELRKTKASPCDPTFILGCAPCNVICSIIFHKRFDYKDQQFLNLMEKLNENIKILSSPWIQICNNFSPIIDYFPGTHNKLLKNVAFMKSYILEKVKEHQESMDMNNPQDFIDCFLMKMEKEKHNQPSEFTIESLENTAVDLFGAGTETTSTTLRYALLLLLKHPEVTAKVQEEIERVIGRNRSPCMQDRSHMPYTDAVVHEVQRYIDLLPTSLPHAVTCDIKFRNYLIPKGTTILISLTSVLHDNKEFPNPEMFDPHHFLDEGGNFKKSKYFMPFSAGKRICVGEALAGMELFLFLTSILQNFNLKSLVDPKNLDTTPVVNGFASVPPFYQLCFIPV
T2 sequence (Q13148 whole entry, the tested form may be a part): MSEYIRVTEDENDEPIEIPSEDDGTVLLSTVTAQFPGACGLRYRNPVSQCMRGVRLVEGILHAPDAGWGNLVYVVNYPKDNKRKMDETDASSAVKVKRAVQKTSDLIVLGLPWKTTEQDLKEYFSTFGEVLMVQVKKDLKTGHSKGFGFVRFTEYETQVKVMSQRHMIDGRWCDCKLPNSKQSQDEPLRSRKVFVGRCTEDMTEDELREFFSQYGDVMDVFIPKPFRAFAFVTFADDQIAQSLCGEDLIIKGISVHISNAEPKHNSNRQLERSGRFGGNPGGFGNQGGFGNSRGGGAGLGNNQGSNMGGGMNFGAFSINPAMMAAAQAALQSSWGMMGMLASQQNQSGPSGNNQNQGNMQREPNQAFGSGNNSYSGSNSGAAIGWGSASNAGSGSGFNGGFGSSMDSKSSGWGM

Row | SMILES | Cell viability (%) (@ 3 uM) [1] | CYP2C9 (% activity) [2] [% activity] | Human microsomes (% remaining) [3] [% remaining] | inhibition at 3 µM [4] [%] | CYP2C19 (% activity) [5] [% activity] | CYP2D6 (% activity) [6] [% activity] | pIC50 [4]
1 | N#CC(C#N)=NNc1ccc2sc(N3CCOCC3)nc2c1 [Compound 1, (2-morpholinobenzo[d]thiazol-5-yl)carbonohydrazonoyl dicyanide] | 87.5 | 82.5 | 91.2 | 78.1 | > 100 | > 100 | 
2 | N#CC(C#N)=NNc1ccc2nc(N3CCOCC3)sc2c1 [Compound 2, (2-morpholinobenzo[d]thiazol-6-yl)carbonohydrazonoyl dicyanide] | 87.5 | 95.1 | 74.3 | 100 | 96.7 | > 100 | 
3 | N#CC(C#N)=NNc1ccc2oc(N3CCOCC3)nc2c1 [Compound 3, (2-morpholinobenzo[d]oxazol-5-yl)carbonohydrazonoyl dicyanide] | 102.3 | > 100 | 99.4 | 79.6 | > 100 | > 100 | 
4 | N#CC(C#N)=NNc1ccc2nc(N3CCOCC3)oc2c1 [Compound 4, (2-morpholinobenzo[d]oxazol-6-yl)carbonohydrazonoyl dicyanide] | 104.2 | 93.2 | 93.5 | 100 | 93.4 | > 100 | 
5 | Cn1c(N2CCOCC2)nc2ccc(NN=C(C#N)C#N)cc21 [Compound 5, (1-methyl-2-morpholino-1H-benzo[d]imidazol-6-yl)carbonohydrazonoyl dicyanide] | 109.2 | 98 | 77.8 | 94.7 | 90.2 | > 100 | 
6 | Cn1c(N2CCOCC2)nc2cc(NN=C(C#N)C#N)ccc21 [Compound 6, (1-methyl-2-morpholino-1H-benzo[d]imidazol-5-yl)carbonohydrazonoyl dicyanide] | 98.1 | > 100 | 90 | 97.4 | 98.4 | > 100 | 
7 | CN1CCN(c2nc3ccc(NN=C(C#N)C#N)cc3s2)CC1 [Compound 8, (2-(4-methylpiperazin-1-yl)benzo[d]thiazol-6-yl)carbonohydrazonoyl dicyanide] | 83.0 | > 100 | 83.9 | 100 | > 100 | > 100 | 
8 | COC1CCN(c2nc3ccc(NN=C(C#N)C#N)cc3s2)CC1 [Compound 9, (2-(4-methoxypiperidin-1-yl)benzo[d]thiazol-6-yl)carbonohydrazonoyl dicyanide] | 76.2 | 60.7 | 5.0 | 100 | 86.9 | > 100 | 
9 | CC1CN(c2nc3ccc(NN=C(C#N)C#N)cc3s2)CC(C)O1 (stereo not shown) [Compound 10, (2-(2,6-dimethylmorpholino)benzo[d]thiazol-6-yl)carbonohydrazonoyl dicyanide] | 83.8 | 76.8 | 69.4 | 100 | 83.6 | 93.8 | 
10 | CN1CCN(c2nc3ccc(NN=C(C#N)C#N)cc3o2)CC1 [Compound 14, (2-(4-methylpiperazin-1-yl)benzo[d]oxazol-6-yl)carbonohydrazonoyl dicyanide] | 101.4 | 88 |  | 100 | 95.5 | > 100 | 
11 | N#CC(C#N)=NNc1ccc2nc(N3CCNCC3)sc2c1 [Compound 24, (2-(piperazin-1-yl)benzo[d]thiazol-6-yl)carbonohydrazonoyl dicyanide] | 83.1 | 72.0 |  | 97.9 | 67.9 | 74.2 | 7.28
12 | N#CC(C#N)=NNc1ccc2nc(N3CCNCC3)oc2c1 [Compound 25, (2-(piperazin-1-yl)benzo[d]oxazol-6-yl)carbonohydrazonoyl dicyanide] | 76.7 | 93.5 |  | 98.2 | 85.7 | 93.5 | 7.28
13 | CC(C)N1CCN(c2nc3ccc(NN=C(C#N)C#N)cc3s2)CC1 [Compound 27, (2-(4-isopropylpiperazin-1-yl)benzo[d]thiazol-6-yl)carbonohydrazonoyl dicyanide] | 104.8 | 58.5 |  | 48.2 | 95.4 | 92.3 | 
